Where two headings read alike, the source gives them in different places.
Key:
Assay in all cases: biochemical
Haspin = target: T1, Haspin (Homo sapiens, UniProt Q8TF76)
T1 sequence (Q8TF76 1-798): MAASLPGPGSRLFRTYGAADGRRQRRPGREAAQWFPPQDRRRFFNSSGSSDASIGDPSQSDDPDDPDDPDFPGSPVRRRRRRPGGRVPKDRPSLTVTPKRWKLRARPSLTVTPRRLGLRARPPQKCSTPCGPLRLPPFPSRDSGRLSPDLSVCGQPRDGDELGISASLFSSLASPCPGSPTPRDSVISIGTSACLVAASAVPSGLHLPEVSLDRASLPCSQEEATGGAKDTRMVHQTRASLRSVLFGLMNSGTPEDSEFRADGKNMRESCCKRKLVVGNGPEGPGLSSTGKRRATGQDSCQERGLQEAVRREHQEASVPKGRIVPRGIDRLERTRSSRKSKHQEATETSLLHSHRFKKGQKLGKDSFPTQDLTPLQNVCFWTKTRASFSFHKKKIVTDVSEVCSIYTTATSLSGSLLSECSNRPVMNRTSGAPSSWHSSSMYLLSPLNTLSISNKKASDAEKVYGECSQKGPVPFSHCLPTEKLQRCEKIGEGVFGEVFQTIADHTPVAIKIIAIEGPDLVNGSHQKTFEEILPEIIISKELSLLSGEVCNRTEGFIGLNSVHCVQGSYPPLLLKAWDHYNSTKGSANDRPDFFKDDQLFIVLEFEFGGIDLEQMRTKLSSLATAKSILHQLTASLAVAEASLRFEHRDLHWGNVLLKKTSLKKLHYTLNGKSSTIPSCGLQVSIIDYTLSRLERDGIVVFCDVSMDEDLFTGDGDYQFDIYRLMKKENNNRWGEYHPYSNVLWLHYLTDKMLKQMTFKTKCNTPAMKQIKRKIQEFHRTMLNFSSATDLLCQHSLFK

BRPF1 = target: T2, BRPF1 (Homo sapiens, UniProt P55201)
T2 sequence (P55201 1-1214): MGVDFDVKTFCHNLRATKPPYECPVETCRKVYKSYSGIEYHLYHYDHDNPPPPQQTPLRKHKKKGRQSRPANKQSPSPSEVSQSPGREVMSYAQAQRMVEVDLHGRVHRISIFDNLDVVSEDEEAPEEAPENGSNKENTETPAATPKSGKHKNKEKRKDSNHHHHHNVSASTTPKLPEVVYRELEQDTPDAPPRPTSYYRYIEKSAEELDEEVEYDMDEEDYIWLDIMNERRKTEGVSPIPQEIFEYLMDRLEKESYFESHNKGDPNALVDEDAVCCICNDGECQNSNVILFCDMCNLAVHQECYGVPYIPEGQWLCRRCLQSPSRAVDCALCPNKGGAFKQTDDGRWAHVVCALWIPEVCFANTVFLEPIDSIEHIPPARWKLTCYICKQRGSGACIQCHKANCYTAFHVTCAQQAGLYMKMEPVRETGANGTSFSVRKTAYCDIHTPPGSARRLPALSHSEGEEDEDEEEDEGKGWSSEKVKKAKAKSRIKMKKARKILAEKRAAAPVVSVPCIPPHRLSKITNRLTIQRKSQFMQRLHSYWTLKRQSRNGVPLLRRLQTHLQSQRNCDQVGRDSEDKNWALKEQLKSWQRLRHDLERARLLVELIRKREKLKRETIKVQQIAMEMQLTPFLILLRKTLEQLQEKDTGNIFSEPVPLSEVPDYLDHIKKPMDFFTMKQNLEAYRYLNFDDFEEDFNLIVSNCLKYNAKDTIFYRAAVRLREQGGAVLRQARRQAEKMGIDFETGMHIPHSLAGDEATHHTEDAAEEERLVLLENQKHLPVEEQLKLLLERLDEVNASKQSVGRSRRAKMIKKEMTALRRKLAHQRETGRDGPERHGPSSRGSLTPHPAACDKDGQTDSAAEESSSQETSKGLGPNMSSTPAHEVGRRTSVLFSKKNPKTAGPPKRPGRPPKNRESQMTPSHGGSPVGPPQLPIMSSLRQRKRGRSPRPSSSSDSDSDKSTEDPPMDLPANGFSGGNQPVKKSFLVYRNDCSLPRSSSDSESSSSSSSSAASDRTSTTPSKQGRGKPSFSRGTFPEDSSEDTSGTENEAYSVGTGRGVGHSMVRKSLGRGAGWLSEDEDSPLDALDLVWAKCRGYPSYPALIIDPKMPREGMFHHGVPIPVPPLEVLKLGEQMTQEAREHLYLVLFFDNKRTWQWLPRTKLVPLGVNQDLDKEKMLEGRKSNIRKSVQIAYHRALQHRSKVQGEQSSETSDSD

EphA7 = EphA7 (Homo sapiens, UniProt Q15375)
Chain of EphA7 (Q15375 whole entry): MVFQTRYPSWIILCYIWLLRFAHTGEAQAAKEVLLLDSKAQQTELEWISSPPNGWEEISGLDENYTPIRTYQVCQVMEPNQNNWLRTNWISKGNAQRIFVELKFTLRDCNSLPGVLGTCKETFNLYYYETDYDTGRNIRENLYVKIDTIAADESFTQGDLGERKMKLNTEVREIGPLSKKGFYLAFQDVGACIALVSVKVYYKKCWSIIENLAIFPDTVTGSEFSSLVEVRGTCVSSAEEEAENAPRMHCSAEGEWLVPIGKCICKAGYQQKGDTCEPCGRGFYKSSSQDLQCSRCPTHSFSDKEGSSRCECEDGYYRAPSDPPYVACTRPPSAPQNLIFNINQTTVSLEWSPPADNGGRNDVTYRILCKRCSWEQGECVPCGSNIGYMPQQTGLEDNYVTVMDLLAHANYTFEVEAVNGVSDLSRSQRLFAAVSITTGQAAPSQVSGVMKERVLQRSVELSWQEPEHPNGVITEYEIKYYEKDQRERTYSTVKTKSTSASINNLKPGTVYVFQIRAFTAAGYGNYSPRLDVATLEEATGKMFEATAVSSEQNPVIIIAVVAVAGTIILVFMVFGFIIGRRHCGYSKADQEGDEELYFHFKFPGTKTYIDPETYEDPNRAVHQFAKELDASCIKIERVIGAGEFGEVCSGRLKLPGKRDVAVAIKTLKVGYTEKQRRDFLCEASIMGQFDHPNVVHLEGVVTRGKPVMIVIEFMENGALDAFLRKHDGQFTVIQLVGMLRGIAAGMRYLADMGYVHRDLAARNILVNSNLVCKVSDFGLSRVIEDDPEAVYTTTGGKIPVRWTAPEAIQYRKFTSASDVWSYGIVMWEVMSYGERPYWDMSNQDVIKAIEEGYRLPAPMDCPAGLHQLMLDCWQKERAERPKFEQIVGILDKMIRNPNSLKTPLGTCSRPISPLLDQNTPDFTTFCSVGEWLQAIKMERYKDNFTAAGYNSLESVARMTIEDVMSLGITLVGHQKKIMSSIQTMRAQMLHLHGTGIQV

CaMK1d = CaMK1d (Homo sapiens, UniProt Q8IU85)
Chain of CaMK1d (Q8IU85 whole entry): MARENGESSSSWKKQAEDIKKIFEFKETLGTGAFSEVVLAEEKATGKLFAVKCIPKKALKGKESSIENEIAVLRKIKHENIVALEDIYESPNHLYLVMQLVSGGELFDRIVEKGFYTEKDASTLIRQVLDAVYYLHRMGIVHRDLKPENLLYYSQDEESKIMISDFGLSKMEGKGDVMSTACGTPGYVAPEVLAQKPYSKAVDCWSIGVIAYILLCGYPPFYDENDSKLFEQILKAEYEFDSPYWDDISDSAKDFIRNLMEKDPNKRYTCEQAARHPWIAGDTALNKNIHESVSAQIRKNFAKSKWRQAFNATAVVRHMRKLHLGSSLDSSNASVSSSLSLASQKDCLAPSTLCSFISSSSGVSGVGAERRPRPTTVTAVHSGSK

AurA = target: T3, AurA (Homo sapiens, UniProt O14965)
T3 sequence (O14965 1-403): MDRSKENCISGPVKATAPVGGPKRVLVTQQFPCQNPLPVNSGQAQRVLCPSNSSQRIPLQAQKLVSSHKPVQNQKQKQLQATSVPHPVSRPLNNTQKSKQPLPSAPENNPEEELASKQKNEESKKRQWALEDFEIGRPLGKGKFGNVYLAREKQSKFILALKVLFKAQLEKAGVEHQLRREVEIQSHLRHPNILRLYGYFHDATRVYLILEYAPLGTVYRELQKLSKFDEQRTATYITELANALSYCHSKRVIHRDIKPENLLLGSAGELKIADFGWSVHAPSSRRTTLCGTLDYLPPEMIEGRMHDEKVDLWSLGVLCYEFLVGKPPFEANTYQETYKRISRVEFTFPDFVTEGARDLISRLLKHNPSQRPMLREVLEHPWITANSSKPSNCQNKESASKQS

GSK3B = GSK3B (Homo sapiens, UniProt P49841)
Chain of GSK3B (P49841 whole entry): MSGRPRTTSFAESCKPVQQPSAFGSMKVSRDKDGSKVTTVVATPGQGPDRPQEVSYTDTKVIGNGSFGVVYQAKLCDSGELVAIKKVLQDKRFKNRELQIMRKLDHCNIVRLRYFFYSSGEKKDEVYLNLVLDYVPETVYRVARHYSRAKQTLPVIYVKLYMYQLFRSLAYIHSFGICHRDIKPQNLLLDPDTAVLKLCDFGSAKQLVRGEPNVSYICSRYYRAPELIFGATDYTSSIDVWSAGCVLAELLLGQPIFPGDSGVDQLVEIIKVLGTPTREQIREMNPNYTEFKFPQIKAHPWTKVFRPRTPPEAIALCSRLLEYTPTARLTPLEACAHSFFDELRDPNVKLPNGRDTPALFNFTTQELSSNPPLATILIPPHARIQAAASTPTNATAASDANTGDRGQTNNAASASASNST

With `CNc1ncc2cc(-c3cc(Br)ccc3Cl)c(=O)n(CCCCN)c2n1` [compound 6, 8-(4-Aminobutyl)-6-(5-bromo-2-chlorophenyl)-2-(methylamino)pyrido[2,3-d]pyrimidin-7(8H)-one] the ΔTm at 10 µM (Haspin; read-out: dTm 6) was 0.7 °C, the ΔTm at 10 µM (BRPF1; read-out: dTm 6) was 0.3 °C and the ΔTm at 10 µM (EphA7; read-out: dTm 6) was 2.7 °C. The ΔTm at 10 µM (CaMK1d; read-out: dTm 6) was 2.1 °C, the ΔTm at 10 µM (AurA; read-out: dTm 6) was 1.9 °C and the ΔTm at 10 µM (GSK3B; read-out: dTm 6) was 1 °C.

For `CNc1ncc2cc(-c3cc(F)ccc3F)c(=O)n(CCCCN)c2n1` [compound 5, 8-(4-Aminobutyl)-6-(2,5-difluorophenyl)-2-(methylamino)pyrido[2,3-d]pyrimidin-7(8H)-one], the ΔTm at 10 µM (Haspin; read-out: dTm MR22 (5)) was -0.3 °C, the ΔTm at 10 µM (BRPF1; read-out: dTm MR22 (5)) was -1 °C and the ΔTm at 10 µM (EphA7; read-out: dTm MR22 (5)) was -1.6 °C. For the same molecule, the ΔTm at 10 µM (CaMK1d; read-out: dTm MR22 (5)) was -1.2 °C, the ΔTm at 10 µM (AurA; read-out: dTm MR22 (5)) was -3 °C and the ΔTm at 10 µM (GSK3B; read-out: dTm MR22 (5)) was 1.6 °C.

With `CNc1ncc2cc(-c3ccc(-c4cccc(C)n4)cc3Cl)c(=O)n(CC3OCC(N)CO3)c2n1` (centres unmarked) [compound 2, G-5555] the “dTm G-5555 (2)” value (Haspin; 10 µM, binder) was 0.2 °C, the “dTm G-5555 (2)” value (BRPF1; 10 µM, binder) was 0.8 °C and the “dTm G-5555 (2)” value (EphA7; 10 µM, binder) was 4.1 °C. The “dTm G-5555 (2)” value (CaMK1d; 10 µM, binder) was 4.5 °C, the “dTm G-5555 (2)” value (AurA; 10 µM, binder) was 8.5 °C and the “dTm G-5555 (2)” value (GSK3B; 10 µM, binder) was 0.1 °C.

For `CNc1ncc2cc(-c3ccccc3Cl)c(=O)n(CCCCN)c2n1` [compound 4, 8-(4-Aminobutyl)-6-(2-chlorophenyl)-2-(methylamino)pyrido[2,3-d]pyrimidin-7(8H)-one], the ΔTm at 10 µM (Haspin; read-out: dTm MR21 (4)) was 0.7 °C, the ΔTm at 10 µM (BRPF1; read-out: dTm MR21 (4)) was 0.7 °C and the ΔTm at 10 µM (EphA7; read-out: dTm MR21 (4)) was 1.8 °C. For the same molecule, the ΔTm at 10 µM (CaMK1d; read-out: dTm MR21 (4)) was 2.7 °C and the ΔTm at 10 µM (GSK3B; read-out: dTm MR21 (4)) was 2.7 °C.

In the case of `CNc1ncc2cc(-c3cc(Br)ccc3Cl)c(=O)n(C[C@H]3OC[C@H](N)CO3)c2n1` [compound 7, 8-(((2r,5r)-5-Amino-1,3-dioxan-2-yl)methyl)-6-(5-bromo-2-chlorophenyl)-2-(methylamino)pyrido[2,3-d]pyrimidin-7(8H)-one], the ΔTm at 10 µM (Haspin; read-out: dTm 7) is reported as 0.7 °C, the ΔTm at 10 µM (BRPF1; read-out: dTm 7) is reported as -0.7 °C and the ΔTm at 10 µM (EphA7; read-out: dTm 7) is reported as -0.5 °C. For the same molecule, the ΔTm at 10 µM (CaMK1d; read-out: dTm 7) was 0.4 °C, the ΔTm at 10 µM (AurA; read-out: dTm 7) was 1.4 °C and the ΔTm at 10 µM (GSK3B; read-out: dTm 7) was 0.3 °C.

— doi:10.1101/2023.03.24.534094v2 (biorxiv, 2023)
